Columns and labels:
HDAC7 = molecular target: T1, HDAC7 (Homo sapiens, UniProt Q8WUI4); assay: HDAC biochemical activity measurement (fluorescent substrate deacetylation);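 note: fluorogenic deacetylation assay using acetyl-lysine substrate at 20 µM, enzyme and compound incubated 30 min at 37 °C, then developer added, fluorescence read at 360/460 nm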; details: HDAC7; 37° C. 30 minutes
T1 sequence (Q8WUI4 1-952): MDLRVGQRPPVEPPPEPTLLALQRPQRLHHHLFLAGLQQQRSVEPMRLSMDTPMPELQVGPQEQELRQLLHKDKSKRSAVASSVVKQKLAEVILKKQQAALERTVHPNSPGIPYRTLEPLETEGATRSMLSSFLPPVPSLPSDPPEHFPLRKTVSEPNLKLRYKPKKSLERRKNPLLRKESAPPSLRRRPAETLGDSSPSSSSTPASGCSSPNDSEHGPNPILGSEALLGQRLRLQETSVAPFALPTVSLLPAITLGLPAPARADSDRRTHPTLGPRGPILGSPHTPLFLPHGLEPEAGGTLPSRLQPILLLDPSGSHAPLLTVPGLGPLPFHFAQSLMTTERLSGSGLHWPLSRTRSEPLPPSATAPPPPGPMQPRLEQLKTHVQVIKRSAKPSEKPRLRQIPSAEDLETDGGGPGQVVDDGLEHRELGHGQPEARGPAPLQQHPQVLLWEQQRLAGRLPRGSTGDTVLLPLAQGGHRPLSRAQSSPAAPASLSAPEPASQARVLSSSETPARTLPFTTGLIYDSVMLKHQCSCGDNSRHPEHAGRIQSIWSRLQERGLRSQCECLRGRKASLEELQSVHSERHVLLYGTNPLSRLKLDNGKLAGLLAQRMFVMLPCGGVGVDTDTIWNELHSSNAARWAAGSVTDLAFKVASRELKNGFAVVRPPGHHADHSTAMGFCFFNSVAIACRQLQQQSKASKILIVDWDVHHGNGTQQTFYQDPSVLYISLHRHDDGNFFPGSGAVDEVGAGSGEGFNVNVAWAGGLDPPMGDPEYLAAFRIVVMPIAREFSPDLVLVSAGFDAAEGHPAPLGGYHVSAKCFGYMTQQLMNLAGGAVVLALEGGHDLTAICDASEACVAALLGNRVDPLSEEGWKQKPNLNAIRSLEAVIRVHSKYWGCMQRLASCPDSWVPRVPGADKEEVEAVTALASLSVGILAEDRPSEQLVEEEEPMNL

HDAC2 = HDAC2 (Homo sapiens, UniProt Q92769); assay: as above; details: 37° C. 30 minutes;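 note: HDAC2 enzyme with an acetyl-lysine fluorescent substrate, then developer added, fluorescence read at excitation 360 nm and emission 460 nm, inhibition measured across several compound concentrations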
[1] = system: Hela (human cervical cancer cells); assay: MTT cancer cell growth inhibition; assay type: cell-based; details: Homo sapiens, HeLa, 72 h, Hela cells, MTT, 72 hours incubation; read-out: GI50 Hela
How it was run: (§1)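 Read-out was formazan absorbance at 570 nm after a 4 h MTT step and DMSO solubilisation, converted to cell viability and fitted for GI50. Beforehand, cells (1500/well, overnight attachment) were treated with compound at 10^−5 to 10^−10 M for 72 h at 37° C.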

[2] = system: SGC-7901 (human gastric cancer cells); assay: MTT cancer cell growth inhibition; assay type: cell-based; details: Homo sapiens, SGC-7901, 72 h, MTT, 72 hours incubation, SGC-7901 cells; read-out: GI50 SGC-7901
How it was run: as §1

[3] = system: MDA-MB-231 (breast cancer cells); assay: MTT cancer cell growth inhibition; assay type: cell-based; details: Homo sapiens, MDA-MB-231, 72 h, read-out: GI50 MDA-MB-231, MTT, 72 hours incubation, MDA-MB-231 cells
How it was run: as §1

[4] = system: HT1080 (human fibrosarcoma cells); assay: MTT cancer cell growth inhibition; assay type: cell-based; details: Homo sapiens, HT-1080, 72 h, HT1080 cells, MTT, 72 hours incubation; read-out: GI50 HT1
How it was run: as §1

[5] = system: MOLT-4 (human acute lymphoblastic leukemia cells); assay: MTT cancer cell growth inhibition; assay type: cell-based; details: Homo sapiens, MOLT-4, 72 h, MOLT-4 cells, MTT, 72 hours incubation; read-out: GI50 Mol
How it was run: as §1

[6] = system: Huh-7 (human hepatoma cells); assay: MTT cancer cell growth inhibition; assay type: cell-based; details: Homo sapiens, Huh-7, 72 h, MTT, 72 hours incubation, Huh-7 cells; read-out: GI50 Huh-7
How it was run: as §1

[7] = system: DU145 (human prostate cancer cells); assay: MTT cancer cell growth inhibition; assay type: cell-based; details: Homo sapiens, DU-145, 72 h, DU145 cells, MTT, 72 hours incubation; read-out: GI50 Du1
How it was run: as §1

[8] = system: Bel-7402 (human hepatoma cells); assay: MTT cancer cell growth inhibition; assay type: cell-based; details: Homo sapiens, Bel-7402, 72 h, MTT, 72 hours incubation, Bel-7402 cells; read-out: GI50 Bel-7402
How it was run: as §1

[9] = system: MCF-7 (human breast cancer cells); assay: MTT cancer cell growth inhibition; assay type: cell-based; details: Homo sapiens, MCF7, 72 h, MCF-7 cells, 72 hours incubation, read-out: GI50 MCF
How it was run: as §1

[10] = system: U937 (human leukemia cells); assay: MTT cancer cell growth inhibition; assay type: cell-based; details: Homo sapiens, U-937, 72 h, U937 cells, MTT, 72 hours incubation; read-out: GI50 U93
How it was run: as §1

[11] = system: BGC-823 (human gastric cancer cells); assay: MTT cancer cell growth inhibition; assay type: cell-based; details: Homo sapiens, BGC-823, 72 h, BGC-823 cells, MTT, 72 hours incubation; read-out: GI50 BG
How it was run: as §1

[12] = system: A549 (human lung cancer cells); assay: MTT cancer cell growth inhibition; assay type: cell-based; details: Homo sapiens, A549, 72 h, A549 cells, MTT, 72 hours incubation; read-out: GI50 A54
How it was run: as §1

[13] = system: KBM5-T315I (human chronic myelogenous leukemia); assay: MTT cancer cell growth inhibition; assay type: cell-based; details: Homo sapiens, 72 h, MTT, 72 hours incubation, KBM5-T315I cells; read-out: GI50 KBM5-T315I
How it was run: as §1

HDAC1 = HDAC1 (Homo sapiens, UniProt Q13547); assay: HDAC biochemical activity measurement (fluorescent substrate deacetylation);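 note: fluorogenic acetyl-lysine substrate (20 µM) deacetylated by HDAC1, then developer releases fluorophore read at 360 nm excitation and 460 nm emission, inhibitor incubated 30 min at 37 °C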; details: HDAC1; 37° C. 30 minutes; read-out: IC50 HDAC1
HDAC1, sequence (Q13547 whole entry, species assumed): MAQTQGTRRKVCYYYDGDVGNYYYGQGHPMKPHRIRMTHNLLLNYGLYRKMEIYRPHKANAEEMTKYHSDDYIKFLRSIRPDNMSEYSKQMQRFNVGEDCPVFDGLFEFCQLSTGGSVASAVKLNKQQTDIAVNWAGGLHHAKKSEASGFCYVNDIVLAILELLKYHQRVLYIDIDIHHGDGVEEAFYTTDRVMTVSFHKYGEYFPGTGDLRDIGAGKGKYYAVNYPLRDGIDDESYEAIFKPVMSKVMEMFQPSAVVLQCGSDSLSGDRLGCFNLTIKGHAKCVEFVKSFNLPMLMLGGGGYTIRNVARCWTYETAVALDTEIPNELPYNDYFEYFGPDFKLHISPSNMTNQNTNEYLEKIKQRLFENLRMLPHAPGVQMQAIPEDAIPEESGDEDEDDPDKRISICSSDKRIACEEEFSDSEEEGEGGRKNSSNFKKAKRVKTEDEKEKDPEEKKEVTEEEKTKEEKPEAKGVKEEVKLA

HDAC2, sequence (Q92769 whole entry, species assumed): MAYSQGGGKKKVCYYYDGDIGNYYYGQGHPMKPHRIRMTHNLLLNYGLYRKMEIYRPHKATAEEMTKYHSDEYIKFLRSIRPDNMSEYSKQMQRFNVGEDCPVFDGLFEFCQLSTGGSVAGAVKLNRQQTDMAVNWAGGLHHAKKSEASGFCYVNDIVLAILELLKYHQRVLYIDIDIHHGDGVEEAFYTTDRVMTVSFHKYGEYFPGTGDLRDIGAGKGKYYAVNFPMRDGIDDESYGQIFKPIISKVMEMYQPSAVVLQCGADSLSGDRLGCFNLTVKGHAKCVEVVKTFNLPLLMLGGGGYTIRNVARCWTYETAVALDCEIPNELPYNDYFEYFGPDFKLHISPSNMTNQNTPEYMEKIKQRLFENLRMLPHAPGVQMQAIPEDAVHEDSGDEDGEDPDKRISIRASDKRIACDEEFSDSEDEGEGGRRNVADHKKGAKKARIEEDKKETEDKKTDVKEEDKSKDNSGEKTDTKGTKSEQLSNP

Compound | IC50 HDAC7 (HDAC7) | IC50 (HDAC2) [nM] | GI50 [1] [nM] | GI50 [2] [nM] | GI50 [3] [nM] | GI50 [4] [nM] | GI50 [5] [nM] | GI50 [6] [nM] | GI50 [7] [nM] | GI50 [8] [nM] | GI50 [9] [nM] | GI50 [10] [nM] | GI50 [11] [nM] | GI50 [12] [nM] | GI50 [13] [nM] | IC50 (HDAC1) [nM]
C/C=C1\NC(=O)c2nc(ccc2SC)CNC(=O)C[C@@H](/C=C/CCSC(=O)CCCCCCC)OC(=O)[C@H](C(C)C)NC1=O [Compound 147] | no activity | 41 | 50 | 45 | 78 | 80 | 80 | 57 | 40 | 28 | 40 | 30 | 50 | 30 | 26 | 61
C/C=C1\NC(=O)c2cc(SC)cc(n2)CNC(=O)C[C@@H](/C=C/CCSC(=O)CCCCCC)OC(=O)[C@H](C(C)C)NC1=O [Compound 151] | no activity | 24 | 70 | 36 | 37 | 90 | 90 | 35 | 40 | 26 | 40 | 40 | 40 | 40 | 22 | 61
C/C=C1\NC(=O)c2nc(ccc2SC)CNC(=O)C[C@@H](/C=C/CCSC(=O)CCCCC)OC(=O)[C@H](C(C)C)NC1=O [Compound 153] | no activity | 31 | 50 | 83 | 57 | 80 | 80 | 75 | 60 | 96 | 60 | 30 | 20 | 30 | 31 | 72
C/C=C1\NC(=O)c2nc(ccc2SC)CNC(=O)C[C@@H](/C=C/CCSC=O)OC(=O)[C@H](C(C)C)NC1=O [Compound 168] | no activity | 41 | 50 | 34 | 12 | 130 | 100 | 56 | 50 | 44 | 60 | 40 | 10 | 80 | 36 | 91
C/C=C1\NC(=O)c2cc(SC)cc(n2)CNC(=O)C[C@@H](/C=C/CCSC=O)OC(=O)[C@H](C(C)C)NC1=O [Compound 169] | no activity | 52 | 20 | 62 | 35 | 60 | 40 | 61 | 70 | 46 | 70 | 20 | 60 | 40 | 47 | 72
C/C=C1\NC(=O)c2nc(ccc2SC)CNC(=O)C[C@@H](/C=C/CCSC(=O)CCCCCCC)OC(=O)[C@H](CC)NC1=O [Compound 171] | no activity | 35 | 50 | 28 | 65 | 40 | 20 | 53 | 10 | 38 | 10 | 20 | 70 | 50 | 68 | 68
C/C=C1\NC(=O)c2nc(ccc2SCCC)CNC(=O)C[C@@H](/C=C/CCSC(=O)CCCCCCC)OC(=O)[C@H](CC)NC1=O [Compound 174] | no activity | 32 | 20 | 26 | 16 | 10 | 20 | 11 | 50 | 41 | 80 | 70 | 30 | 50 | 96 | 84
C/C=C1\NC(=O)c2cc(SCCC)cc(n2)CNC(=O)C[C@@H](/C=C/CCSC(=O)CCCCCCC)OC(=O)[C@H](CC)NC1=O [Compound 175] | no activity | 32 | 10 | 62 | 29 | 50 | 20 | 27 | 30 | 105 | 20 | 40 | 20 | 100 | 47 | 41
C/C=C1\NC(=O)c2cc(SC)cc(n2)CNC(=O)C[C@@H](/C=C/CCSC(C)=O)OC(=O)[C@H](CC)NC1=O [Compound 178] | no activity | 26 | 60 | 76 | 26 | 20 | 50 | 42 | 20 | 58 | 30 | 90 | 60 | 30 | 22 | 91
C/C=C1\NC(=O)c2ccc(SC)c(n2)CNC(=O)C[C@@H](/C=C/CCSC(C)=O)OC(=O)[C@H](CC)NC1=O [Compound 179] | no activity | 51 | 30 | 19 | 51 | 40 | 80 | 15 | 30 | 65 | 60 | 50 | 30 | 60 | 28 | 73
C/C=C1\NC(=O)c2ccc(SC)c(n2)CNC(=O)C[C@@H](/C=C/CCSC(=O)CCCCCCC)OC(=O)[C@H](Cc2ccccc2)NC1=O [Compound 191] | no activity | 36 | 130 | 33 | 52 | 50 | 50 | 89 | 40 | 51 | 170 | 30 | 100 | 70 | 32 | 92

From US10065990B2, “Cyclic peptide compound, and preparation method, pharmaceutical composition and use thereof” (HANGZHOU GUANYU BIO-MEDICAL CO., LTD, priority 2013, dated 2018)
